Reference: the NIST ThermoML archive (doi:10.1021/acs.jced.7b00039)
± gives the expanded uncertainty stated by the source.

Key:
[1] = 100 kPa, Liquid; for viscosity: Cone and plate viscometry; for mass density: Vibrating tube method
[2] = wn = mass fraction of the nth substance listed; details: 100 kPa, Liquid; for viscosity: Cone and plate viscometry; for mass density: Vibrating tube method

CC(CC(C)(C)C)CP(=O)([O-])CC(C)CC(C)(C)C.CCCCCCCCCCCCCC[P+](CCCCCC)(CCCCCC)CCCCCC
[1]
Details	mass density [kg/m3]	viscosity [mPa·s]
298 K	883.68 ± 9.7	1023 ± 120
310 K	876.52 ± 9.6	521 ± 59
318 K	871.79 ± 9.5	345 ± 38

CC(CC(C)(C)C)CP(=O)([O-])CC(C)CC(C)(C)C.CCCCCCCCCCCCCC[P+](CCCCCC)(CCCCCC)CCCCCC + O
[2]
Details	mass density, 298 K [kg/m3]	mass density, 310 K [kg/m3]	mass density, 318 K [kg/m3]	viscosity, 298 K [mPa·s]	viscosity, 310 K [mPa·s]	viscosity, 318 K [mPa·s]
w2 = 0.00047	884.09 ± 9.7	876.93 ± 9.6	872.2 ± 9.5	1023 ± 120	521 ± 59	345 ± 38
w2 = 0.00122	884.98 ± 9.7	877.82 ± 9.6	873.07 ± 9.5	996 ± 120	512 ± 58	337 ± 37
w2 = 0.00289	886.11 ± 9.7	878.88 ± 9.6	874.07 ± 9.5	924 ± 110	476 ± 53	313 ± 34
w2 = 0.00582	886.78 ± 9.7	879.48 ± 9.6	874.64 ± 9.5	796 ± 92	401 ± 45	263 ± 28
w2 = 0.0147	887.75 ± 9.7	880.36 ± 9.6	875.46 ± 9.5	646 ± 74	321 ± 35	210 ± 23
w2 = 0.0317	890.65 ± 9.7	883.04 ± 9.6	878.08 ± 9.5	431 ± 48	211 ± 23	137 ± 14
w2 = 0.081	898.06 ± 9.6	890.2 ± 9.5	884.95 ± 9.4	261 ± 29	125 ± 13	81.6 ± 8.6
w2 = 0.142	–	–	893.78 ± 9.4	–	–	55.6 ± 6
w2 = 0.146	–	900.11 ± 9.5	–	–	79.7 ± 8.6	–
w2 = 0.154	–	–	–	142 ± 15	–	–
w2 = 0.156	909.07 ± 9.6	–	–	142 ± 15	–	–

O [water]
[1]
Details	mass density [kg/m3]	viscosity [mPa·s]
298 K	–	0.89 ± 0.089
310 K	993.35 ± 9.9	0.686 ± 0.069
318 K	–	0.581 ± 0.058

O [water] + CC(CC(C)(C)C)CP(=O)([O-])CC(C)CC(C)(C)C.CCCCCCCCCCCCCC[P+](CCCCCC)(CCCCCC)CCCCCC
[2], w1 = 1
Details	mass density [kg/m3]	viscosity [mPa·s]
298 K	–	0.89 ± 0.089
310 K	993.35 ± 9.9	0.686 ± 0.069
318 K	–	0.581 ± 0.058
